Data reported in US12331068B2, “Compositions and methods for inhibiting CD73” (Peloton Therapeutics, Inc., priority 2018, dated 2025).

Assays:
Human CD73 = biological target: T1, Human CD73 (Homo sapiens, UniProt P21589); assay: CD73 Enzyme Assay (EnzChek PNP/MESG kinetic readout of AMP hydrolysis); format: biochemical; conditions: 0.25 nM hCD73, 25 μM AMP; read-out: CD73 Enzyme Assay IC50
T1 construct: purchased R&D Systems; host or cells: CHO cells
T1 sequence (P21589 27-549): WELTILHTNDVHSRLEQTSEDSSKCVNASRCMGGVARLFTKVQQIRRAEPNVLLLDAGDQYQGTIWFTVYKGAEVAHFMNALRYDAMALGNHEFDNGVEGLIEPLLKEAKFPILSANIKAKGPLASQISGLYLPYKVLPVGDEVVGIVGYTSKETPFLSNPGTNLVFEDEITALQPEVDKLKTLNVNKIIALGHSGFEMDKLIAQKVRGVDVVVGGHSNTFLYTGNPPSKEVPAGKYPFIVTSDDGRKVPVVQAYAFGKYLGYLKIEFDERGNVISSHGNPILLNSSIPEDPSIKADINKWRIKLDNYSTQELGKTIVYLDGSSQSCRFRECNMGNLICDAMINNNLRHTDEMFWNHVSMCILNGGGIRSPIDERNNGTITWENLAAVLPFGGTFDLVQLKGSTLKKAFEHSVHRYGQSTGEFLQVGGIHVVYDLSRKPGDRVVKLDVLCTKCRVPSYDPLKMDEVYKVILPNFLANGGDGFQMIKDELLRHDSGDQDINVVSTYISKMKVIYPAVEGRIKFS
Experimental: A compound of the present disclosure (5 μL) was transferred to a 384-well assay plate. The compound was added in a 15 point, 3-fold serial dilution (300 μM to 0.0002 μM) in DMSO. […] The plate was immediately placed in a plate reader (Synergy 2 or Spark 10), and a reading was taken every minute for 10 to 20 minutes in a kinetic run at 360 nm. The linear portion of the curve was used to determine the observed rate (initial velocity). Low signal controls containing 100 μM adenosine 5′-(α,β-methylene) diphosphate and high signal controls containing no compound were measured for each plate.
IC50 values were calculated using Dotmatics template equation for 4-parameter fit. Results are expressed as % inhibition using the following equation: […]

[1] = biological target: T2, CD73 on U138 human neuroglioma cells (Homo sapiens, UniProt P21589); assay: CD73 Cell-Based Assay (inorganic phosphate from AMP, malachite green); conditions: AMP substrate, 2 hours at 37° C., read-out: CD73 Cell-Based assay IC50
T2 construct: U138 cells were obtained from ATCC and cultured in DMEM with 10% FBS; host or cells: U138 human neuroglioma cells
T2 sequence (P21589 27-549): T1 sequence (P21589 27-549)
Experimental: U138 human neuroglioma cells were used in these experiments. U138 cells were obtained from ATCC and cultured in DMEM with 10% FBS. 2500 cells were seeded into 96-well plate with 100 μL of media the day before the experiment. […] After washing, 100 μL of buffer was added to each well, then 100 μL of a mixture of AMP substrate (200 μM) and diluted compound was added to each well. The cells were incubated at 37° C. (with 5% CO2) for 2 hours. 50 μL of supernatant was transferred to a 96-well assay plate and the concentration of inorganic phosphate was determined using malachite green reagent (R&D System; Cat: DY996).

SMILES	IC50 (Human CD73) [µM]	IC50 [1] [µM]
N#Cc1c(Cl)nc2c(ncn2[C@@H]2O[C@H](COCP(=O)(O)O)[C@@H](O)[C@H]2O)c1N1CC(F)(F)C1 [Compound 82]	< 0.01	< 0.01
N#Cc1c(Cl)nc2c(ncn2[C@@H]2O[C@H](COCP(=O)(O)O)[C@@H](O)[C@H]2O)c1N1CC[C@@H](F)C1 [Compound 83]	< 0.01	< 0.01
N#Cc1c(Cl)nc2c(ncn2[C@@H]2O[C@H](COCP(=O)(O)O)[C@@H](O)[C@H]2O)c1N1CC[C@H](F)C1 [Compound 84]	< 0.01	< 0.01
N#Cc1c(Cl)nc2c(cnn2[C@@H]2O[C@H](COCP(=O)(O)O)[C@@H](O)[C@H]2O)c1NC1CC(F)C1 (stereo partly shown) [Compound 89]	< 0.01	< 0.01
N#Cc1c(Cl)nc2c(cnn2[C@@H]2O[C@H](COCP(=O)(O)O)[C@@H](O)[C@H]2O)c1N1CC[C@@H](F)C1 [Compound 90]	< 0.01	< 0.01
N#Cc1c(Cl)nc2c(cnn2[C@@H]2O[C@H](COCP(=O)(O)O)[C@@H](O)[C@H]2O)c1N1C[C@@H](F)[C@@H](F)C1 [Compound 91, ((((2R,3S,4R,5R)-5-(6-chloro-5-cyano-4-((3S,4R)-3,4-difluoropyrrolidin-1-yl)-1H-pyrazolo[3,4-b]pyridin-1-yl)-3,4-dihydroxytetrahydrofuran-2-yl)methoxy)methyl)phosphonic acid]	< 0.01	< 0.01
N#Cc1c(Cl)nc2c(ncn2[C@@H]2O[C@H](COCP(=O)(O)O)[C@@H](O)[C@H]2O)c1N1C[C@@H](F)[C@@H](F)C1 [Compound 92, ((((2R,3S,4R,5R)-5-(5-chloro-6-cyano-7-((3S,4R)-3,4-difluoropyrrolidin-1-yl)-3H-imidazo[4,5-b]pyridin-3-yl)-3,4-dihydroxytetrahydrofuran-2-yl)methoxy)methyl)phosphonic acid]	< 0.01	< 0.01
N#Cc1c(Cl)nc2c(ncn2[C@@H]2O[C@H](COCP(=O)(O)O)[C@@H](O)[C@H]2O)c1N1C[C@@H](F)[C@H](F)C1 [Compound 93]	< 0.01	< 0.01
N#Cc1c(Cl)nc2c(ncn2[C@@H]2O[C@H](COCP(=O)(O)O)[C@@H](O)[C@H]2O)c1N1CCC(F)(F)C1 [Compound 94, ((((2R,3S,4R,5R)-5-(5-chloro-6-cyano-7-(3,3-difluoropyrrolidin-1-yl)-3H-imidazo[4,5-b]pyridin-3-yl)-3,4-dihydroxytetrahydrofuran-2-yl)methoxy)methyl)phosphonic acid]	< 0.01	< 0.01
N#Cc1c(Cl)nc2c(cnn2[C@@H]2O[C@H](COP(=O)(O)CP(=O)(O)O)[C@@H](O)[C@@H]2F)c1N1CCC(F)(F)C1 [Compound 95, (((((2R,3R,4S,5R)-5-(6-chloro-5-cyano-4-(3,3-difluoropyrrolidin-1-yl)-1H-pyrazolo[3,4-b]pyridin-1-yl)-4-fluoro-3-hydroxytetrahydrofuran-2-yl)methoxy)(hydroxy)phosphoryl)methyl)phosphonic acid]	< 0.01	< 0.01
N#Cc1c(Cl)nc2c(ccn2[C@@H]2O[C@H](COP(=O)(O)CP(=O)(O)O)[C@@H](O)[C@@H]2F)c1N1CCC(F)(F)C1 [Compound 96]	< 0.01	< 0.01
N#Cc1c(Cl)nc2c(ncn2[C@@H]2O[C@H](COP(=O)(O)CP(=O)(O)O)[C@@H](O)[C@@H]2F)c1N1CCC(F)(F)C1 [Compound 97]	< 0.01	< 0.01
N#Cc1nc2c(ccn2[C@@H]2O[C@H](COCP(=O)(O)O)[C@@H](O)[C@H]2O)c(NC2CCCC2)c1Cl [Compound 101]	< 0.01	< 0.01
N#Cc1nc2c(ccn2[C@@H]2O[C@H](COCP(=O)(O)O)[C@@H](O)[C@H]2O)c(N2CCC(F)(F)C2)c1Cl [Compound 102]	< 0.01	< 0.01
N#Cc1nc2c(ccn2[C@@H]2O[C@H](COCP(=O)(O)O)[C@@H](O)[C@H]2O)c(N2C[C@@H](F)[C@@H](F)C2)c1Cl [Compound 103]	< 0.01	< 0.01

Continued, values first:

IC50 (Human CD73) [µM]	IC50 [1] [µM]	SMILES
< 0.01	< 0.01	N#Cc1nc2c(ccn2[C@@H]2O[C@H](COCP(=O)(O)O)[C@@H](O)[C@H]2O)c(NC2CCCC2)c1C#N [Compound 104]
< 0.01	< 0.01	N#Cc1nc2c(ccn2[C@@H]2O[C@H](COCP(=O)(O)O)[C@@H](O)[C@H]2O)c(N2CCC(F)(F)C2)c1C#N [Compound 105]
< 0.01	< 0.01	N#Cc1nc2c(ccn2[C@@H]2O[C@H](COCP(=O)(O)O)[C@@H](O)[C@H]2O)c(N2C[C@@H](F)[C@@H](F)C2)c1C#N [Compound 106]
< 0.01	< 0.01	N#Cc1c(Cl)nc2c(ncn2[C@@H]2O[C@H](CS(=O)(=O)CP(=O)(O)O)[C@@H](O)[C@H]2O)c1NC1CC(F)(F)C1 [Compound 113, (((((2S,3S,4R,5R)-5-(5-chloro-6-cyano-7-((3,3-difluorocyclobutyl)amino)-3H-imidazo[4,5-b]pyridin-3-yl)-3,4-dihydroxytetrahydrofuran-2-yl)methyl)sulfonyl)methyl)phosphonic acid]
< 0.01	< 0.01	N#Cc1c(Cl)nc2c(ncn2[C@@H]2O[C@H](CS(=O)(=O)CP(=O)(O)O)[C@@H](O)[C@H]2O)c1NC1CC(F)C1 (stereo partly shown) [Compound 117]
< 0.01	< 0.01	N#Cc1c(Cl)nc2c(ncn2[C@@H]2O[C@H](CS(=O)(=O)CP(=O)(O)O)[C@@H](O)[C@H]2O)c1N1CCC(F)(F)C1 [Compound 118]
0.01 to 0.1	< 0.01	N#Cc1c(Cl)nc2c(cnn2[C@@H]2O[C@H](CS(=O)(=O)CP(=O)(O)O)[C@@H](O)[C@H]2O)c1N1CCC(F)(F)C1 [Compound 119, (((((2S,3S,4R,5R)-5-(6-chloro-5-cyano-4-(3,3-difluoropyrrolidin-1-yl)-1H-pyrazolo[3,4-b]pyridin-1-yl)-3,4-dihydroxytetrahydrofuran-2-yl)methyl)sulfonyl)methyl)phosphonic acid]
< 0.01	< 0.01	N#Cc1c(Cl)nc2c(ncn2[C@@H]2O[C@H](CS(=O)(=O)CP(=O)(O)O)[C@@H](O)[C@H]2O)c1NC1CCC(F)(F)CC1 [Compound 126]
< 0.01	< 0.01	N#Cc1c(Cl)nc2c(ncn2[C@@H]2O[C@H](CS(=O)(=O)CP(=O)(O)O)[C@@H](O)[C@H]2O)c1NC1CC2CC2C1 (stereo partly shown) [Compound 127]
< 0.01	< 0.01	N#Cc1c(Cl)nc2c(cnn2[C@@H]2O[C@H](CS(=O)(=O)CP(=O)(O)O)[C@@H](O)[C@H]2O)c1NC1CC2CC2C1 (stereo partly shown) [Compound 128]
< 0.01	< 0.01	N#Cc1c(Cl)nc2c(cnn2[C@@H]2O[C@H](CS(=O)(=O)CP(=O)(O)O)[C@@H](O)[C@H]2O)c1NC1CC(F)(F)C1 [Compound 129]
< 0.01	< 0.01	N#Cc1c(Cl)nc2c(cnn2[C@@H]2O[C@H](CS(=O)(=O)CP(=O)(O)O)[C@@H](O)[C@H]2O)c1NC1CCC(F)(F)CC1 [Compound 130]
0.01 to 0.1	< 0.01	N#Cc1c(Cl)nc2c(ncn2[C@@H]2O[C@H](CS(=O)(=O)CP(=O)(O)O)[C@@H](O)[C@H]2O)c1N[C@H]1C[C@H](F)C1 [Compound 136]
< 0.01	< 0.01	N#Cc1nc2c(ccn2[C@@H]2O[C@H](CS(=O)(=O)CP(=O)(O)O)[C@@H](O)[C@H]2O)c(NC2CCC(F)(F)CC2)c1Cl [Compound 137]
0.01 to 0.1	< 0.01	N#Cc1nc2c(ccn2[C@@H]2O[C@H](CS(=O)(=O)CP(=O)(O)O)[C@@H](O)[C@H]2O)c(N2C[C@@H](F)[C@@H](F)C2)c1Cl [Compound 138]
< 0.01	< 0.01	N#Cc1nc2c(ccn2[C@@H]2O[C@H](CS(=O)(=O)CP(=O)(O)O)[C@@H](O)[C@H]2O)c(NC2CC(F)(F)C2)c1Cl [Compound 142]
< 0.01	< 0.01	N#Cc1nc2c(ccn2[C@@H]2O[C@H](CS(=O)(=O)CP(=O)(O)O)[C@@H](O)[C@H]2O)c(N2CCC(F)(F)C2)c1Cl [Compound 143]
